Assay results as given in patent US8426442B2, “Compounds” (Xention Ltd, priority 2009, dated 2013).

Legend:
hKv1.3 = hKv1.3 (Homo sapiens, UniProt P22001); assay: hKv1.3 % inhibition; type: cell-based; details: for inhibition at 1 µM: read-out: hKv1.3 % inh. 1 uM
hKv1.5 = hKv1.5 (Homo sapiens, UniProt P22460); assay: hKv1.5 % inhibition; type: cell-based; details: for inhibition at 0.3 µM: read-out: hKv1.5 % inh. 300 nM
Chain of hKv1.5 (P22460 whole entry): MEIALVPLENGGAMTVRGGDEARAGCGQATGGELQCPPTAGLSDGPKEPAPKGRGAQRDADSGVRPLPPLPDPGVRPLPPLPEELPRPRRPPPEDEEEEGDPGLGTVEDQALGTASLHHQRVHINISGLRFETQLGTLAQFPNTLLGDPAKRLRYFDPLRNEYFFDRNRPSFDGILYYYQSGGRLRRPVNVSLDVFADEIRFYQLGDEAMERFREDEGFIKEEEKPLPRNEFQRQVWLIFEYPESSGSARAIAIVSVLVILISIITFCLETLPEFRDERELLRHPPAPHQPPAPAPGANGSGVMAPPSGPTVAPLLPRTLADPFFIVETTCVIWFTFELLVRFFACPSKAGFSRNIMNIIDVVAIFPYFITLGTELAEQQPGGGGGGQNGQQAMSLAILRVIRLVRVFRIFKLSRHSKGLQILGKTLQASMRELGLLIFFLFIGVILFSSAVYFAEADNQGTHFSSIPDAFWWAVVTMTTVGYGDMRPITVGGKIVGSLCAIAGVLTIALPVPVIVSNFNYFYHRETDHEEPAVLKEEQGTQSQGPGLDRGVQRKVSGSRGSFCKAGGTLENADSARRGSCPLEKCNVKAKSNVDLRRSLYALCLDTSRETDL

Chain of hKv1.3 (P22001 whole entry): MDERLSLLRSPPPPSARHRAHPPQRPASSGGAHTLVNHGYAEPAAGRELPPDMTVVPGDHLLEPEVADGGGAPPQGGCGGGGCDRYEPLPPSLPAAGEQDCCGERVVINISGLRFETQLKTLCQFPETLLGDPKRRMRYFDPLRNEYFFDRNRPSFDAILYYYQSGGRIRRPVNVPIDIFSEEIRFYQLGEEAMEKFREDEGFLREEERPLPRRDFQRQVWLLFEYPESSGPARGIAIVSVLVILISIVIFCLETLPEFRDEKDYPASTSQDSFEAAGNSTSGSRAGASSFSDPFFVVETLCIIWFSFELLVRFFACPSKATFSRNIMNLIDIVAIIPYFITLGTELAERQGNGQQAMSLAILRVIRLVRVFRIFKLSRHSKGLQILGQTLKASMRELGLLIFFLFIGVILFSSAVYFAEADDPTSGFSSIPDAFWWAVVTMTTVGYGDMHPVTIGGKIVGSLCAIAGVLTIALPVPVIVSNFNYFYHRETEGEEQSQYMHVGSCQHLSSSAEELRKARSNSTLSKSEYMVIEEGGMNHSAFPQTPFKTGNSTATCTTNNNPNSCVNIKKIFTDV

Compound	inhibition at 1 µM (hKv1.3)	inhibition at 0.3 µM (hKv1.5)	hKv1.3 % inh. 1 uM (hKv1.3)	hKv1.5 % inh. 300 nM (hKv1.5)
1-Methyl-1H-pyrazole-3-sulfonic acid (4-chloro-benzyl)-[1-(3-methoxy-propionyl)-2,3-dihydro-1H-indol-6-yl]-amide [Example 2]			99.1%	
1-Methyl-1H-pyrazole-3-sulfonic acid benzyl-[2-(2-cyano-acetyl)-1,2,3,4-tetrahydro-isoquinolin-6-yl]-amide [Example 9]			71.6%	27.6%
1-Methyl-1H-pyrazole-3-sulfonic acid benzyl-[2-(2-methoxy-acetyl)-1,2,3,4-tetrahydro-isoquinolin-6-yl]-amide [Example 18]			51.1%	34.6%
1-Methyl-1H-pyrazole-3-sulfonic acid benzyl-[2-(3-methoxy-propionyl)-1,2,3,4-tetrahydro-isoquinolin-6-yl]-amide [Example 12]			64.3%	41.7%
1-Methyl-1H-pyrazole-3-sulfonic acid benzyl-[2-(pyridine-2-carbonyl)-1,2,3,4-tetrahydro-isoquinolin-6-yl]-amide [Example 17]			54.8%	36.7%
COCC(=O)N1CCc2ccc(N(Cc3ccc(Cl)cc3)S(=O)(=O)c3ccn(C)n3)cc21 [Example 1, 1-Methyl-1H-pyrazole-3-sulfonic acid (4-chloro-benzyl)-[1-(2-methoxy-acetyl)-2,3-dihydro-1H-indol-6-yl]-amide]	100%	92.1%		
CC(=O)N1CCc2ccc(N(Cc3ccc(Cl)cc3)S(=O)(=O)c3ccn(C)n3)cc21 [Example 3, 1-Methyl-1H-pyrazole-3-sulfonic acid (1-acetyl-2,3-dihydro-1H-indol-6-yl)-(4-chloro-benzyl)-amide]	98%	89.5%		
COCCC(=O)N1CCc2cc(N(Cc3ccc(Cl)cc3)S(=O)(=O)c3ccn(C)n3)ccc21 [Example 5, 1-Methyl-1H-pyrazole-3-sulfonic acid (4-chloro-benzyl)-[1-(3-methoxy-propionyl)-2,3-dihydro-1H-indol-5-yl]-amide]	90.7%	65.2%		
CC(=O)N1CCc2cc(N(Cc3ccc(Cl)cc3)S(=O)(=O)c3cn(C)cn3)ccc2C1 [Example 8, 1-Methyl-1H-imidazole-4-sulfonic acid(2-acetyl-1,2,3,4-tetrahydro-isoquinolin-6-yl)-(4-chlorobenzyl)-amide]			73.3%	25.2%
CC(=O)N1CCc2cc(N(Cc3ccccc3)S(=O)(=O)c3ccn(C)n3)ccc2C1 [Example 10, 1-Methyl-1H-pyrazole-3-sulfonic acid (2-acetyl-1,2,3,4-tetrahydro-isoquinolin-6-yl)-benzyl-amide]	67.2%	37.5%		

Second part, led by results:

inhibition at 1 µM (hKv1.3)	inhibition at 0.3 µM (hKv1.5)	Compound	hKv1.3 % inh. 1 uM (hKv1.3)	hKv1.5 % inh. 300 nM (hKv1.5)
91.3%	86.1%	CC(=O)N1CCc2cc(N(Cc3ccc(Cl)cc3)S(=O)(=O)c3ccn(C)n3)ccc21 [Example 4, 1-Methyl-1H-pyrazole-3-sulfonic acid (1-acetyl-2,3-dihydro-1H-indol-5-yl)-(4-chloro-benzyl)-amide]		
85.4%	37.1%	Cn1cnc(S(=O)(=O)N(Cc2ccc(Cl)cc2)c2ccc3c(c2)NCC3)c1 [Example 6, 1-Methyl-1H-imidazole-4-sulfonic acid (4-chloro-benzyl)-(2,3-dihydro-1H-indol-6-yl)-amide]		
77.2%	48.3%	Cn1ccc(S(=O)(=O)N(Cc2ccc(Cl)cc2)c2ccc3c(c2)CCN3C(=O)CC#N)n1 [Example 7, 1-Methyl-1H-pyrazole-3-sulfonic acid (4-chloro-benzyl)-[1-(2-cyano-acetyl)-2,3-dihydro-1H-indol-5-yl]-amide]		
65.6%	20.9%	COCCC(=O)N1CCc2ccc(N(Cc3ccc(Cl)cc3)S(=O)(=O)c3cn(C)cn3)cc21 [Example 11, 1-Methyl-1H-imidazole-4-sulfonic acid (4-chloro-benzyl)-[1-(3-methoxy-propionyl)-2,3-dihydro-1H-indol-6-yl]-amide]		
64.2%	66.6%	COCC(=O)N1CCc2cc(N(Cc3ccc(Cl)cc3)S(=O)(=O)c3ccn(C)n3)ccc21 [Example 13, 1-Methyl-1H-pyrazole-3-sulfonic acid (4-chloro-benzyl)-[1-(2-methoxy-acetyl)-2,3-dihydro-1H-indol-5-yl]-amide]		
62.7%	32.1%	COCC(=O)N1CCc2cc(N(Cc3ccc(Cl)cc3)S(=O)(=O)c3cn(C)cn3)ccc2C1 [Example 14, 1-Methyl-1H-imidazole-4-sulfonic acid (4-chloro-benzyl)-[2-(2-methoxy-acetyl)-1,2,3,4-tetrahydro-isoquinolin-6-yl]-amide]		
61.1%	20.5%	Cn1cnc(S(=O)(=O)N(Cc2ccc(Cl)cc2)c2ccc3c(c2)CCN3)c1 [Example 15, 1-Methyl-1H-imidazole-4-sulfonic acid (4-chloro-benzyl)-(2,3-dihydro-1H-indol-5-yl)-amide]		
57.5%	32.2%	COCCC(=O)N1CCc2cc(N(Cc3ccc(Cl)cc3)S(=O)(=O)c3cn(C)cn3)ccc2C1 [Example 16, 1-Methyl-1H-imidazole-4-sulfonic acid (4-chloro-benzyl)-[2-(3-methoxy-propionyl)-1,2,3,4-tetrahydro-isoquinolin-6-yl]-amide]		
49.5%	16.2%	Cn1cnc(S(=O)(=O)N(Cc2ccc(Cl)cc2)c2ccc3c(c2)CCN(C(=O)CO)C3)c1 [Example 19, 1-Methyl-1H-imidazole-4-sulfonic acid (4-chloro-benzyl)-[2-(2-hydroxy-acetyl)-1,2,3,4-tetrahydro-isoquinolin-6-yl]-amide]		
48.5%	13.4%	Cn1cnc(S(=O)(=O)N(Cc2ccc(Cl)cc2)c2ccc3c(c2)CCN(C(=O)CC#N)C3)c1 [Example 20, 1-Methyl-1H-imidazole-4-sulfonic acid (4-chloro-benzyl)-[2-(2-cyano-acetyl)-1,2,3,4-tetrahydro-isoquinolin-6-yl]-amide]		
